Laboratory results: paper PMC9653409, “Generative deep learning enables the discovery of a potent and selective RIPK1 inhibitor” (Nature Communications, 2022)
Like-named read-outs stand apart in the source and are kept apart here.

What was measured:
Assay in all cases: Kinase inhibitory activity profiling of RI-962@10 µM (406 kinases, Eurofins)
Assay type in all cases: biochemical
[1] = target: panel of human kinases (kinase named in endpoint) (Homo sapiens, UniProt O00329); conditions: 10 µM; read-out: Activity (%), PI3 Kinase (p110d/p85a)(h)
Procedure, shortened: (§1)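 Radiometric filter-binding kinase assays: enzyme preincubated 15 min with compound in 8 mM MOPS pH 7.0, 0.2 mM EDTA, 250 μM peptide substrate, 10 mM magnesium acetate, 10 μM [γ-33P]-ATP. Reaction started with Mg/ATP, run 40 min at room temperature, stopped with phosphoric acid; 33P incorporation read by scintillation counting. Other kinases by similar protocols.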

[2] = target: panel of human kinases (kinase named in endpoint) (Homo sapiens, UniProt O43293); conditions: 10 µM; read-out: Activity (%), ZIPK(h)
Procedure, shortened: as §1

[3] = target: panel of human kinases (kinase named in endpoint) (Homo sapiens, UniProt Q00526); conditions: 10 µM; read-out: Activity (%), CDK3/cyclinE(h)
Procedure, shortened: as §1

[4] = target: panel of human kinases (kinase named in endpoint) (Homo sapiens, UniProt P68400); conditions: 10 µM
Chain of panel of human kinases (kinase named in endpoint) (Homo sapiens, UniProt P68400) (P68400 whole entry): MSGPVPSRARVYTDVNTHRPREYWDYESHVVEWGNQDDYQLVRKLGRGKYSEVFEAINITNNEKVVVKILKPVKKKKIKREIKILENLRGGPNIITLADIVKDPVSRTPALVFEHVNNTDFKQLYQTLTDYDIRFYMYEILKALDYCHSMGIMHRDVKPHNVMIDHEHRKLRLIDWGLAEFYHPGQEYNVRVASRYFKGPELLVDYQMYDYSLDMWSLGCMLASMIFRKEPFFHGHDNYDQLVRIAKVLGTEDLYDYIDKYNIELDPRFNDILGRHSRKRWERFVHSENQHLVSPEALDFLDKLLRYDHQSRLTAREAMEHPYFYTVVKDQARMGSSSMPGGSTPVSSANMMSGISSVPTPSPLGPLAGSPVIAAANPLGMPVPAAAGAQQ
Procedure, shortened: as §1

[5] = target: panel of human kinases (kinase named in endpoint) (Homo sapiens, UniProt Q96PF2); conditions: 10 µM; read-out: Activity (%), TSSK2(h)
Procedure, shortened: as §1

[6] = target: panel of human kinases (kinase named in endpoint) (Homo sapiens, UniProt P34947); conditions: 10 µM; read-out: Activity (%), GRK5(h)
Procedure, shortened: as §1

[7] = target: panel of human kinases (kinase named in endpoint) (Homo sapiens, UniProt Q06187, R28H); conditions: 10 µM; read-out: Activity (%), BTK(R28H)(h)
Procedure, shortened: as §1

[8] = target: panel of human kinases (kinase named in endpoint) (Homo sapiens, UniProt Q8WXR4); conditions: 10 µM; read-out: Activity (%), MYO3B(h)
Procedure, shortened: as §1

[9] = target: panel of human kinases (kinase named in endpoint) (Homo sapiens, UniProt Q9HCP0); conditions: 10 µM; read-out: Activity (%), CK1γ1(h)
Chain of panel of human kinases (kinase named in endpoint) (Homo sapiens, UniProt Q9HCP0) (Q9HCP0 whole entry): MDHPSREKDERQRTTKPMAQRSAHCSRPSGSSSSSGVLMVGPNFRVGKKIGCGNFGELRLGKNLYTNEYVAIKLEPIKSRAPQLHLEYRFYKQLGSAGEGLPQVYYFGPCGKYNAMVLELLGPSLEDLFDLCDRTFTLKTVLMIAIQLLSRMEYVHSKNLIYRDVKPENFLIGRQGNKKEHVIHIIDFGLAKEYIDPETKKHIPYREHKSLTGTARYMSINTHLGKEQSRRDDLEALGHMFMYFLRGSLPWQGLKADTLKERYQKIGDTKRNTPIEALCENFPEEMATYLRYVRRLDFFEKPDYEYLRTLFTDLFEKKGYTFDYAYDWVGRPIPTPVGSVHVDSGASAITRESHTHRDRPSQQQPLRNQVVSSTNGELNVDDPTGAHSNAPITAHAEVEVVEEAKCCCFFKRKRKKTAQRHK
Procedure, shortened: as §1

[10] = target: panel of human kinases (kinase named in endpoint) (Homo sapiens, UniProt P36507); conditions: 10 µM; read-out: Activity (%), MEK2(h)
Procedure, shortened: as §1

[11] = target: panel of human kinases (kinase named in endpoint) (Homo sapiens, UniProt O95819); conditions: 10 µM; read-out: Activity (%), MAP4K4(h)
Procedure, shortened: as §1

[12] = target: panel of human kinases (kinase named in endpoint) (Homo sapiens, UniProt Q00532); conditions: 10 µM; read-out: Activity (%), CDKL1(h)
Chain of panel of human kinases (kinase named in endpoint) (Homo sapiens, UniProt Q00532) (Q00532 whole entry): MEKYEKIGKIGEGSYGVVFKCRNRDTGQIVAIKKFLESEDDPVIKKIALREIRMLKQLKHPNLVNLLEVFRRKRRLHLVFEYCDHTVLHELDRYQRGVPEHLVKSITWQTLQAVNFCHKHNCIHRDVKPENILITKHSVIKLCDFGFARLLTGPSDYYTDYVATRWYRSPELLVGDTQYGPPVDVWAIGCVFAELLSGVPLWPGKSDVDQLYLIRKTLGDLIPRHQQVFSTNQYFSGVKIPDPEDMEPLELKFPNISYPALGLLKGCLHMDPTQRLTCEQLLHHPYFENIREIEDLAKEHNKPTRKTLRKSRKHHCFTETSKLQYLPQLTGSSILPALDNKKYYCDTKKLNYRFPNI
Procedure, shortened: as §1

[13] = target: panel of human kinases (kinase named in endpoint) (Homo sapiens, UniProt O94921); conditions: 10 µM; read-out: Activity (%), CDK14/cyclinY(h)
Chain of panel of human kinases (kinase named in endpoint) (Homo sapiens, UniProt O94921) (O94921 whole entry): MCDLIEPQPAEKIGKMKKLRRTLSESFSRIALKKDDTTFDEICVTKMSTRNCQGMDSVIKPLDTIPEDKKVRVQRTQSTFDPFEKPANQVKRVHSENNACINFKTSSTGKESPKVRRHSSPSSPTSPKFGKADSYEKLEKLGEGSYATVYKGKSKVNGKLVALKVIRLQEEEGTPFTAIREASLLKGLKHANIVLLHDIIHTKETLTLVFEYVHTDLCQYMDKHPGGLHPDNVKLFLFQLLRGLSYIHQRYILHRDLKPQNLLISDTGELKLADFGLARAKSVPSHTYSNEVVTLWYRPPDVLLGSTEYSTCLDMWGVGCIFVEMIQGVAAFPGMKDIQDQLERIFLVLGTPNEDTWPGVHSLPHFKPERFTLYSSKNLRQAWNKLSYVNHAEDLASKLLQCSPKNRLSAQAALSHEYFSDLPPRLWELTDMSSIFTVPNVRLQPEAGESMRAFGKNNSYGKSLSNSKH
Procedure, shortened: as §1

[14] = target: panel of human kinases (kinase named in endpoint) (Homo sapiens, UniProt Q99755); conditions: 10 µM; read-out: Activity (%), PIP5K1a(h)
Procedure, shortened: as §1

[15] = target: panel of human kinases (kinase named in endpoint) (Homo sapiens, UniProt P43405); conditions: 10 µM; read-out: Activity (%), Syk(h)
Procedure, shortened: as §1

[16] = target: panel of human kinases (kinase named in endpoint) (Homo sapiens, UniProt P14616); conditions: 10 µM; read-out: Activity (%), IRR(h)
Procedure, shortened: as §1

[17] = target: panel of human kinases (kinase named in endpoint) (Homo sapiens, UniProt Q9NZJ5); conditions: 10 µM; read-out: Activity (%), PEK(h)
Chain of panel of human kinases (kinase named in endpoint) (Homo sapiens, UniProt Q9NZJ5) (Q9NZJ5 30-1116): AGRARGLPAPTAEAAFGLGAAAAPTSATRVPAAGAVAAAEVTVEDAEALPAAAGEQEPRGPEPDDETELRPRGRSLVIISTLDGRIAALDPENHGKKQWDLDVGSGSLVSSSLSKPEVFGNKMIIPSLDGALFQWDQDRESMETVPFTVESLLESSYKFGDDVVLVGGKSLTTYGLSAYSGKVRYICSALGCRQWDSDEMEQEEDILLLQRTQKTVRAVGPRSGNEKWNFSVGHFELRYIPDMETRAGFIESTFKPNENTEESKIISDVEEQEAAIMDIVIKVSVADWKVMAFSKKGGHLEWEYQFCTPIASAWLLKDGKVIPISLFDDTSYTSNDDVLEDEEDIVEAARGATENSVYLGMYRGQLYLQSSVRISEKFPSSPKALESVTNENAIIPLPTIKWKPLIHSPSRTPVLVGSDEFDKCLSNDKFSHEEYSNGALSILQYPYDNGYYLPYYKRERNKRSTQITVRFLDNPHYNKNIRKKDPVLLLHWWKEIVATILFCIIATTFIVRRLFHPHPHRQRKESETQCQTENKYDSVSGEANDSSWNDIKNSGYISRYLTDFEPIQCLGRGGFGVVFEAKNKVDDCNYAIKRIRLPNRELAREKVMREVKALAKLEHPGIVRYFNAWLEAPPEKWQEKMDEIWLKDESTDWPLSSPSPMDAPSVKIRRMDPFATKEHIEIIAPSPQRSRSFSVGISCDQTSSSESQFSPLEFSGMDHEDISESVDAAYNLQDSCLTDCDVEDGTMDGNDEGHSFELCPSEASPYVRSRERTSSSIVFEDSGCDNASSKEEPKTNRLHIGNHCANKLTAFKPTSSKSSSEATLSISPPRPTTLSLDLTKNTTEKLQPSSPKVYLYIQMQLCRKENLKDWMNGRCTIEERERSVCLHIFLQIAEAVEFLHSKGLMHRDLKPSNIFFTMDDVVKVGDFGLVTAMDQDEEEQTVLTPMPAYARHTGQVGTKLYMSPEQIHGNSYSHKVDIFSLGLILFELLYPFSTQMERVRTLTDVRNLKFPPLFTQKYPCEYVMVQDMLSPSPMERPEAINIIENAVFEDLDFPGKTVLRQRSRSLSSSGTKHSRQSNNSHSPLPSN
Procedure, shortened: as §1

[18] = target: panel of human kinases (kinase named in endpoint) (Homo sapiens, UniProt P33981); conditions: 10 µM; read-out: Activity (%), TTK(h)
Procedure, shortened: as §1

[19] = target: panel of human kinases (kinase named in endpoint) (Homo sapiens, UniProt Q5VT25); conditions: 10 µM; read-out: Activity (%), MRCKα(h)
Procedure, shortened: as §1

[20] = target: panel of human kinases (kinase named in endpoint) (Homo sapiens, UniProt Q04759); conditions: 10 µM; read-out: Activity (%), PKCθ(h)
Chain of panel of human kinases (kinase named in endpoint) (Homo sapiens, UniProt Q04759) (Q04759 whole entry): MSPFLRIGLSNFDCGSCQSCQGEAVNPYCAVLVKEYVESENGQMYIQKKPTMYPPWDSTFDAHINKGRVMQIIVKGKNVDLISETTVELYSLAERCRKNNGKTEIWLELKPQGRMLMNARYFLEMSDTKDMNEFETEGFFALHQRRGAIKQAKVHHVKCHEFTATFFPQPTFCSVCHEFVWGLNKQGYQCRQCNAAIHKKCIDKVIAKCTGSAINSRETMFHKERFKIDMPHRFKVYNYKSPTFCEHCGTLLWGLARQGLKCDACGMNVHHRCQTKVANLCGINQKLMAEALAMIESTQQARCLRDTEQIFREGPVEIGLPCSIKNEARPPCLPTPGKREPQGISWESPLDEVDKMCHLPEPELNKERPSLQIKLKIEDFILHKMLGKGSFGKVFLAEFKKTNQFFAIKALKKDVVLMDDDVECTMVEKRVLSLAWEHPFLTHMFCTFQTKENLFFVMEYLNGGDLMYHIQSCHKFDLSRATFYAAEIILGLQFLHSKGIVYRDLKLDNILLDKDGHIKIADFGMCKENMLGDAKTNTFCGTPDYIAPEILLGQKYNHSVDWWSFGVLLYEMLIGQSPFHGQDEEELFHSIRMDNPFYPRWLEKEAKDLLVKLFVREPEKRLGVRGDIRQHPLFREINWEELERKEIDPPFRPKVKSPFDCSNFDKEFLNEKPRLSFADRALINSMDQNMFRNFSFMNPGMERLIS
Procedure, shortened: as §1

[21] = target: panel of human kinases (kinase named in endpoint) (Homo sapiens, UniProt P20794); conditions: 10 µM; read-out: Activity (%), MAK(h)
Chain of panel of human kinases (kinase named in endpoint) (Homo sapiens, UniProt P20794) (P20794 whole entry): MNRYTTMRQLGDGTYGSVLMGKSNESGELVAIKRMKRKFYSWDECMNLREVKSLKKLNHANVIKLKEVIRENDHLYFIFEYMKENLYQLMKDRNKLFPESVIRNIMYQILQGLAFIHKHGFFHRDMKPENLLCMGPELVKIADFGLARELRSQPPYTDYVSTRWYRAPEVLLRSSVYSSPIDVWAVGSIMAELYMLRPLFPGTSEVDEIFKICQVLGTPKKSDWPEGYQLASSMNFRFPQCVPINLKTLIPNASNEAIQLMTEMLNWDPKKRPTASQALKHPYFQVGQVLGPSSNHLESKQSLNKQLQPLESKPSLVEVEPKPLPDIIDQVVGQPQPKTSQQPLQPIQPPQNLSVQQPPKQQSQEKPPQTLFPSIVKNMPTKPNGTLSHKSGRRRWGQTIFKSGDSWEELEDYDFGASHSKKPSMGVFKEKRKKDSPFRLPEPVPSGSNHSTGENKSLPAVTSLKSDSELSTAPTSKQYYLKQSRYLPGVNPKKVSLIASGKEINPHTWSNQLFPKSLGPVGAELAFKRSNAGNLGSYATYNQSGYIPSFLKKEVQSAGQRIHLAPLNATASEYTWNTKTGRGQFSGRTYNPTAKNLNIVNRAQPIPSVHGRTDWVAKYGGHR
Procedure, shortened: as §1

[22] = target: panel of human kinases (kinase named in endpoint) (Homo sapiens, UniProt Q9P0L2); conditions: 10 µM; read-out: Activity (%), MARK1(h)
Procedure, shortened: as §1

[23] = target: panel of human kinases (kinase named in endpoint) (Homo sapiens, UniProt P15735); conditions: 10 µM; read-out: Activity (%), PhKγ2(h)
Procedure, shortened: as §1

[24] = target: panel of human kinases (kinase named in endpoint) (Homo sapiens, UniProt P52333); conditions: 10 µM; read-out: Activity (%), JAK3(h)
Procedure, shortened: as §1

[25] = target: panel of human kinases (kinase named in endpoint) (Homo sapiens, UniProt O60285); conditions: 10 µM; read-out: Activity (%), ARK5(h)
Chain of panel of human kinases (kinase named in endpoint) (Homo sapiens, UniProt O60285) (O60285 whole entry): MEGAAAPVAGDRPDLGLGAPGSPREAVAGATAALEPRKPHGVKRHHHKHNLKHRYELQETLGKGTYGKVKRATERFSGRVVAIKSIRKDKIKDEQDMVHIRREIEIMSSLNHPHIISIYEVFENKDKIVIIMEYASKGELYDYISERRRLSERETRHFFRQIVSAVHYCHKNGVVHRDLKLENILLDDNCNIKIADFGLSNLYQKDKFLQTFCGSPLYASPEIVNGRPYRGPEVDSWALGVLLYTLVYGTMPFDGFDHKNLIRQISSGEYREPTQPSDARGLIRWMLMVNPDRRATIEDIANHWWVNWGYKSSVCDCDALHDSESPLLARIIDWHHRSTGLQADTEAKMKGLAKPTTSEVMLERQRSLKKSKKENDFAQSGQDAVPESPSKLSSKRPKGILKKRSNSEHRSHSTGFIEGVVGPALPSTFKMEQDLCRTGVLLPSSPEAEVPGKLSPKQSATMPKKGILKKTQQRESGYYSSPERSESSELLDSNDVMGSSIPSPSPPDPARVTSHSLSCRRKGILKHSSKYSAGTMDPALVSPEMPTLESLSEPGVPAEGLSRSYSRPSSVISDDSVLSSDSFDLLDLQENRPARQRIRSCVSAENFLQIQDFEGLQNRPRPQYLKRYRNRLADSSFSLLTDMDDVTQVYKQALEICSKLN
Procedure, shortened: as §1

[26] = target: panel of human kinases (kinase named in endpoint) (Homo sapiens, UniProt Q8TDX7); conditions: 10 µM; read-out: Activity (%), NEK7(h)
Chain of panel of human kinases (kinase named in endpoint) (Homo sapiens, UniProt Q8TDX7) (Q8TDX7 whole entry): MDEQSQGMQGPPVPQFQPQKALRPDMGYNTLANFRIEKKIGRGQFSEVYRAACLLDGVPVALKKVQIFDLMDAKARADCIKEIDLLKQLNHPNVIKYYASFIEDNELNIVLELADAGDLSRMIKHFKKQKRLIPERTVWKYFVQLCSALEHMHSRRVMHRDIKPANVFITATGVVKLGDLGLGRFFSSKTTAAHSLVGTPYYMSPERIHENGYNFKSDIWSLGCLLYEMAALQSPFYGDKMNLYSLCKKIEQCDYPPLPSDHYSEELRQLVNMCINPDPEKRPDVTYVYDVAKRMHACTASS
Procedure, shortened: as §1

CC(C)C(=O)Nc1nc2cc(-c3ccc4c(c3)c(C(=O)NC(C)c3ccccc3)cn4C)ccn2n1 (stereo not drawn) [RI-962]
activity at 10 µM [1]: 64%
activity at 10 µM [2]: 102%
activity at 10 µM [3]: 119%
activity at 10 µM ([4]; read-out: Activity (%), CK2(h)): 91%
activity at 10 µM ([4]; read-out: Activity (%), CK2α1(h)): 94%
activity at 10 µM [5]: 76%
activity at 10 µM [6]: 80%
activity at 10 µM [7]: 105%
activity at 10 µM [8]: 76%
activity at 10 µM [9]: 94%
activity at 10 µM [10]: 86%
activity at 10 µM [11]: 88%
activity at 10 µM [12]: 98%
activity at 10 µM [13]: 91%
activity at 10 µM [14]: 106%
activity at 10 µM [15]: 55%
activity at 10 µM [16]: 100%
activity at 10 µM [17]: 94%
activity at 10 µM [18]: 92%
activity at 10 µM [19]: 94%
activity at 10 µM [20]: 131%
activity at 10 µM [21]: 126%
activity at 10 µM [22]: 99%
activity at 10 µM [23]: 93%
activity at 10 µM [24]: 95%
activity at 10 µM [25]: 83%
activity at 10 µM [26]: 85%
